The source of these data is ChEMBL document CHEMBL6182902, “Design, synthesis, and discovery of cinnamoyl amide derivatives as potent NagZ inhibitors with antibacterial activity” (Eur J Med Chem, 2025).

Experiment [1] deals with Pseudomonas aeruginosa. The experiment in a line: Antibacterial activity against Pseudomonas aeruginosa ATCC 27853 infected in female KM mouse assessed as increase in wound contraction in skin at 40 mg/kg, iv measured after 3 days. The experiment is classed as functional, organism-based. Conditions: time 3.0 day.
Experiment [2] has as its system Pseudomonas aeruginosa. Kind of experiment: Antibacterial activity against Pseudomonas aeruginosa ATCC 27853 infected in female KM mouse assessed as epithelial tissue proliferation in skin at 40 mg/kg, iv measured after 3 days. The conditions noted are these: time 3.0 day. It is filed as functional, organism-based.
Experiment [3] deals with Pseudomonas aeruginosa. The experiment in a line: Antibacterial activity against Pseudomonas aeruginosa ATCC 27853 infected in female KM mouse assessed as wound healing rate in skin at 40 mg/kg, iv measured after 3 days (reference value: 36.2 %). It is filed as functional. The conditions noted are these: time 3 day.
The test system of experiment [4] is Pseudomonas aeruginosa. Kind of experiment: Antibacterial activity against Pseudomonas aeruginosa ATCC 27853 infected in female KM mouse assessed as epithelial tissue proliferation in skin at 20 mg/kg, iv measured after 3 days. The experiment is classed as functional, organism-based. The conditions noted are these: time 3.0 day.
For experiment [5], the system named is Pseudomonas aeruginosa. Kind of experiment: Antibacterial activity against Pseudomonas aeruginosa ATCC 27853 infected in female KM mouse assessed as wound healing rate in skin at 20 mg/kg, iv measured after 3 days (reference value: 36.2 %). Conditions: time 3 day. It is filed as functional.
Experiment [6] deals with Escherichia coli. The experiment in a line: Inhibition of recombinant N-terminal His-tagged Escherichia coli BL21 NagZ extracted from Escherichia coli BL21 using pNP-GlcNAc as substrate at 100 uM by absorbance based assay relative to control.
Experiment [7] in a line: Inhibition of recombinant N-terminal His-tagged Escherichia coli BL21 NagZ extracted from Escherichia coli BL21 using pNP-GlcNAc as substrate by absorbance based assay.
Experiment [8] can be described thus: Inhibition of recombinant N-terminal His-tagged Escherichia coli BL21 NagZ extracted from Escherichia coli BL21 using different concentrations of substrate pNP-GlcNAc by 4-nitrophenolate ion release based spectrophotometric analysis.
The test system of experiment [9] is Escherichia coli. The experiment in a line: Binding affinity to CM5 chip-immobilized recombinant N-terminal His-tagged Escherichia coli BL21 NagZ extracted from Escherichia coli BL21 assessed as relative response by SPR analysis.
Experiment [10] is described as follows: Binding affinity to CM5 chip-immobilized recombinant N-terminal His-tagged Escherichia coli BL21 NagZ extracted from Escherichia coli BL21 assessed as equilibrium dissociation constant by SPR analysis.
Experiment [11] has as its system Pseudomonas aeruginosa. Kind of experiment: Synergistic antibacterial activity against Pseudomonas aeruginosa ATCC 27853 assessed as fractional inhibitory concentration index incubated for 18 hrs in presence of imipenem by two-dimensional microdilution checkerboard assay. It is filed as functional.
Experiment [12] relates to Pseudomonas aeruginosa. The experiment in a line: Synergistic antibacterial activity against Pseudomonas aeruginosa ATCC 27853 assessed as fractional inhibitory concentration index incubated for 18 hrs in presence of ceftazidime by two-dimensional microdilution checkerboard assay. The experiment is classed as functional.
Experiment [13] concerns Pseudomonas aeruginosa. Kind of experiment: Synergistic antibacterial activity against Pseudomonas aeruginosa ATCC 27853 assessed as fold reduction in imipenem MIC incubated for 18 hrs by two-dimensional microdilution checkerboard assay. It is filed as functional.
The subject of experiment [14] is Pseudomonas aeruginosa. The experiment in a line: Synergistic antibacterial activity against Pseudomonas aeruginosa ATCC 27853 assessed as fold reduction in ceftazidime MIC incubated for 18 hrs by two-dimensional microdilution checkerboard assay. It is filed as functional.
Experiment [15] concerns Pseudomonas aeruginosa. Kind of experiment: Synergistic antibacterial activity against Pseudomonas aeruginosa ATCC 27853 infected in female KM mouse assessed as epithelial tissue proliferation in skin at 200 ug/ml applied topically in presence of imipenem measured after 3 days. The experiment is classed as functional, organism-based. Conditions: dose 200.0 µg/ml, route top, time 3.0 day.

In experiment [16] the test system is Pseudomonas aeruginosa. Kind of experiment: Synergistic antibacterial activity against Pseudomonas aeruginosa ATCC 27853 infected in female KM mouse assessed as exudate formation on wound surface at 200 ug/ml applied topically in presence of imipenem measured after 3 days. The experiment is classed as functional, organism-based. Conditions: dose 200.0 µg/ml, route top, time 3.0 day.

The test system of experiment [17] is Pseudomonas aeruginosa. Kind of experiment: Synergistic antibacterial activity against Pseudomonas aeruginosa ATCC 27853 infected in female KM mouse assessed as wound healing rate in skin at 200 ug/ml applied topically measured after 3 days in presence of imipenem (reference value: 36.2 %). The experiment is classed as functional. Conditions: dose 200 µg/ml; route top; time 3 day.

In experiment [18] the test system is Pseudomonas aeruginosa. Kind of experiment: Synergistic antibacterial activity against Pseudomonas aeruginosa ATCC 27853 infected in female KM mouse assessed as wound healing rate in skin at 200 ug/ml applied topically measured after 3 days in presence of ceftazidime (reference value: 36.2 %). It is filed as functional. Conditions: dose 200 µg/ml; route top; time 3 day.

The subject of experiment [19] is Pseudomonas aeruginosa. The experiment in a line: Synergistic antibacterial activity against Pseudomonas aeruginosa ATCC 27853 infected in female KM mouse assessed as increase in wound contraction in skin at 200 ug/ml applied topically measured after 3 days in presence of ceftazidime. It is filed as functional, organism-based. Conditions: dose 200.0 µg/ml, route top, time 3.0 day.

Experiment [20] concerns Pseudomonas aeruginosa. Kind of experiment: Synergistic antibacterial activity against Pseudomonas aeruginosa ATCC 27853 infected in female KM mouse assessed as wound healing rate in skin at 200 ug/ml applied topically measured after 10 days in presence of imipenem relative to control. Conditions: dose 200 µg/ml; route top; time 10 day. The experiment is classed as functional.

For experiment [21], the system named is Pseudomonas aeruginosa. Kind of experiment: Synergistic antibacterial activity against Pseudomonas aeruginosa ATCC 27853 infected in female KM mouse assessed as wound healing rate in skin at 200 ug/ml applied topically measured after 10 days in presence of ceftazidime relative to control. It is filed as functional. The conditions noted are these: dose 200 µg/ml; route top; time 10 day.

The source made the active and inactive calls. No cut-off for these calls is given here. Bounds are passed on as bounds.

For `CC(C)(O/N=C(\C(=O)N[C@@H]1C(=O)N2C(C(=O)[O-])=C(C[n+]3ccccc3)CS[C@H]12)c1csc(N)n1)C(=O)O` [CEFTAZIDIME], the Activity entry is “Active; Activity Higher Than Imipenem” in the experiment on Pseudomonas aeruginosa [1] and 62.2% in the experiment with Pseudomonas aeruginosa [3]. For the same compound, the result with Pseudomonas aeruginosa [2] was Active.

With `C[C@@H](O)[C@H]1C(=O)N2C(C(=O)O)=C(SCCNC=N)C[C@H]12` [IMIPENEM ANHYDROUS], in the experiment with Pseudomonas aeruginosa [4], the result was Active. In the experiment on Pseudomonas aeruginosa [5], the Activity is 54.4%.

On to `O=C(/C=C/c1c[nH]c2ccccc12)N[C@@H](Cc1ccc(I)cc1)C(=O)O`, for which, in the experiment with Escherichia coli [6], the inhibition turned out to be 78.8%. For the same compound, the IC50 in [7] amounted to 39.6 µM. The Ki in experiment [8] is 15.5 µM.

Take `O=C(/C=C/c1ccc2ccccc2c1)N[C@@H](Cc1ccc(I)cc1)C(=O)O`: in the experiment with Escherichia coli [6], the inhibition turned out to be 87%. Further, the IC50 in experiment [7] was determined as 10.8 µM. Also, the inhibition constant Ki in [8] was 7.4 µM.

On to `O=C(/C=C/c1ccc(Cl)c(Cl)c1)N[C@@H](Cc1ccc(I)cc1)C(=O)O`, for which the inhibition with Escherichia coli [6] came out at 88%. Besides, the IC50 in [7] was determined as 6.4 µM. Further, the inhibition constant (Ki) in experiment [8] is 3.3 µM. Also, the RU with Escherichia coli [9] was < 68. The Kd in experiment [10] stood at 42.8 µM. In addition, the “fractional inhibitory concentration index (FICI)” value with Pseudomonas aeruginosa [11] and with Pseudomonas aeruginosa [12] was 0.375 throughout. The “fold change (FC)” value with Pseudomonas aeruginosa [13] and in the experiment with Pseudomonas aeruginosa [14] was >4 throughout. Besides, the result in the experiment with Pseudomonas aeruginosa [15] and with Pseudomonas aeruginosa [16] was Active. The Activity is listed as 69.4% in the experiment with Pseudomonas aeruginosa [17]; 73.2% with Pseudomonas aeruginosa [18]; “Active; Activity Higher Than Imipenem And Compound-Ceftazidime Combination” with Pseudomonas aeruginosa [19]; 93.9% in the experiment with Pseudomonas aeruginosa [20]; 95.7% in the experiment with Pseudomonas aeruginosa [21].

`O=C(N[C@@H](Cc1ccc(I)cc1)C(=O)O)/C(=C/c1ccccc1)c1ccccc1`: the inhibition with Escherichia coli [6] stood at 86.8%. For the same compound, the half-maximal inhibitory concentration (IC50) in [7] stood at 39.6 µM. Further, in experiment [8], the inhibitory constant (Ki) came out at 15.5 µM.
